Values quoted from earlier work as cited in patent publication EP3645498B1, “PROCESS FOR RECOVERING ACETIC ACID FROM AN AQUEOUS STREAM COMPRISING THE SAME” (Nouryon Chemicals International B.V., priority 2017, dated 2019).
Like-named read-outs stand apart in the source and are kept apart here.

CCCCCCCCCCCO [1 -Undecanol, 1-undecanol]
Solubility in water (result in words): Insoluble^[10]

CCCCCCCCCCCCc1ccccc1 [Phenyldodecane, phenyldodecane]
Solubility in water (result in words): Insoluble^[11]

CCCCCCCCN(CCCCCCCC)CCCCCCCC [TOA, trioctylamine]
Solubility in water: < 5ppm^[2]

CCCCCCCCP(=O)(CCCCCCCC)CCCCCCCC [TOPO, tri-octylphosphine oxide]
Solubility in water (result in words): Insoluble^[5]

CCCCCCCCCCCCCC [n-Tetradecane, n-tetradecane]
Solubility in water: 0.0022 mg/L^[8]
